“And” between values parts separate entries of the source, which are not always exact repeats. Identical values can stand only once. Counter-ions that a name gives are not always drawn. Like-named read-outs stand apart in the source and are kept apart here.
Assays:
[1] = biological target: muscarinic cholinergic receptor; format: binding, rat; conditions: rat cerebral cortex, ^3 H-QNB 0.25 nM, 25° C., 120 minutes, pH 7.4
[2] = biological target: muscarinic cholinergic receptor; test: [^3 H]-Cis-methyldioxolane (^3 H-CD) Binding Assay (High Affinity); conditions: rat cerebral cortex, ^3 H-CD 1.0 nM, 25° C., 120 minutes, pH 7.4; high affinity agonist binding

With `CN(C)CC#CCN1CC[C@H](O)C1=O` [(S)-1-[4-(Dimethylamino)-2-butynyl]-3-hydroxy-2-pyrrolidinone] the Ki [1] was 26.9 µM and the Ki [2] was 0.043 µM.

Work on `CNC(=O)O[C@H]1CCN(CC#CCN2CCCC2)C1=O` [(S)-3-[[Methylamino)carbonyl]oxy]-1-[4-(1-pyrrolidinyl)-2-butynyl]-2-pyrrolidinone] yielded a Ki [1] of 433 µM and a Ki [2] of over 100 µM.

Compound `CC(=O)O[C@H]1CCN(CC#CCN2CCC[C@H]2CO[Si](C)(C)C(C)(C)C)C1=O` [[S-(R*,R*)]-3-(Acetyloxy)-1-[4-[2-[[[(1,1-dimethylethyl)-dimethylsilyl]oxy]methyl]-1-pyrrolidinyl]-2-butynyl]-2-pyrrolidinone] has a Ki [1] of 2.6 µM and a Ki [2] of 0.079 µM.

`O=C1[C@@H](O)CCN1CC#CCN1CCCC1` [(S)-3-Hydroxy-1-[4-(1-pyrrolidinyl)-2-butynyl]-2-pyrrolidinone] showed a Ki [1] of 1.7 µM and a Ki [2] of 0.007 µM.

In the case of `CN(CC#CCN1CC[C@H](O)C1=O)CCCCO` [(S)-3-Hydroxy-1-[4-[(4-hydroxybutyl)methylamino]-2-butynyl]-2-pyrrolidinone], the Ki [1] is reported as over 100 µM and the Ki [2] is reported as 1.3 µM.

Work on `CCCCCCCCCC(=O)O[C@@H]1CCN(CC#CC[N+](C)(C)C)C1=O` [(R)-4-[2-Oxo-3-[(1-oxodecyl)-oxy]-1-pyrrolidinyl]-N,N, N-trimethyl-2-butyn-1-aminium iodide] yielded a Ki [1] of 0.2 µM and a Ki [2] of 0.05 µM.

`CC(=O)O[C@@H]1CCN(CC#CCN2CCC[C@@H]2CO[Si](C)(C)C(C)(C)C)C1=O` [[R-(R*,R*)]-3-Acetyloxy)-1-[4-[2-[[[(1,1-dimethylethyl)-dimethylsilyl]oxy]methyl]-1-pyrrolidinyl]-2-butynyl]-2-pyrrolidinone] gave a Ki [1] of over 100 µM and a Ki [2] of 10.1 µM.

`CCCCCCCCNC(=O)O[C@H]1CC(=O)N(CC#CCN2CCCC2)C1` [(S)-Octylcarbamic acid 2-oxo-1-[4-(1-pyrrolidinyl)-2-butynyl]-4-pyrrolidinyl ester] showed a Ki [1] of 0.13 µM and a Ki [2] of 0.35 µM.

`CN(C)CC#CCN1CC[C@H](OC(=O)C(C)(C)C)C1=O` [(S)-2,2-Dimethylpropanoic acid 1-[4-(dimethylamino)-2-butynyl]-2-oxo-3-pyrrolidinyl ester] showed a Ki [1] of 484 µM and a Ki [2] of 38.8 µM.

For `C[C@@H]1CCN(CC#CCN(C)C)C1=O` [(R)-1-[4-(Dimethylamino)-2-butynyl]-3-methyl-2-pyrrolidinone], the Ki [1] was 7.7 µM and the Ki [2] was 0.073 µM.

In the case of `CC(C)C(=O)O[C@@H]1CCN(CC#CCN(C)C)C1=O` [(R)-Porpanoic acid 2-methyl-1-[4-(dimethylamino)-2-butynyl]-2-oxo-3-pyrrolidinyl ester], the Ki [1] is reported as 711 µM and the Ki [2] is reported as 26 µM.

`CN(C)CC#CCN1CCC(C)(O)C1=O` (racemic) [Racemic-1-[4-Dimethylamino)-2-butynyl]-3-hydroxy-3-methyl-2-pyrrolidinone, Racemic 1-[4-(Dimethylamino)-2-butynyl]-3-hydroxy-3-methyl-2-pyrrolidinone] was tested, and the Ki [1] was over 100 µM and the Ki [2] was over 100 µM.

`O=C(OCc1ccccc1)O[C@@H]1CCN(CC#CCN2CCCC2)C1=O` [(R)-Carbonic acid 2-oxo-1-[4-(1-pyrrolidinyl)-2-butynyl]-3-pyrrolidinyl phenylmethyl ester] gave a Ki [1] of 1.4 µM and a Ki [2] of 0.11 µM.

Compound `CC(=O)O[C@H]1CCN(CC#CCN(C)CCO)C1=O` [(S)-3-(Acetyloxy)-1-[4-[2-(hydroxyethyl)methylamino]-2-butynyl]-2-pyrrolidinone] has a Ki [1] of over 100 µM and a Ki [2] of 16.2 µM.

Compound `CCCCCCCCCC(=O)O[C@H]1CCN(CC#CC[N+](C)(C)C)C1=O` [(S)-N,N, N-Trimethyl-4-[2-oxo-3-[(1-oxodecyl)oxy]-1-pyrrolidinyl-2-butyn-1-aminium iodide] has a Ki [1] of 0.003 µM and a Ki [2] of 0.156 µM.

With `CS[C@@H]1CCN(CC#CCN2CCCC2)C1=O` [(R)-3-(Methylthio)-1-[4-(1-pyrrolidinyl)-2-butynyl]-2-pyrrolidinone] the Ki [1] was 3.6 µM and the Ki [2] was 1.4 µM.

Compound `CCCCCCCCNC(=O)O[C@@H]1CCN(CC#CCN(C)C)C1=O` [(R)-Octylcarbamic acid 1-[4-(dimethylamino)-2-butynyl]-2-oxo-2-pyrrolidinyl ester] has a Ki [1] of 32 µM and a Ki [2] of 1.43 µM.

In the case of `CC1CCN(CC#CCN2CCCC2CO[Si](C)(C)C(C)(C)C)C1=O` (stereo not drawn) [[R-[(R*,R* and R*,S*)]]-1-[4-[2-[[[(1,1-dimethylethyl)dimethylsilyl]oxy]methyl]-1-pyrrolidinyl]-2-butynyl]-3-methyl-2-pyrrolidinone], the Ki [1] is reported as 2.5 µM and the Ki [2] is reported as 5.6 µM.

`CC(C)(C)[Si](C)(C)OC[C@H]1CCCN1CC#CCN1CC[C@@H](O)C1=O` [[R-(R*,R*)]-1-[4-[2-[[[(1,1-Dimethylethyl)dimethylsilyl]-oxy]methyl]-1-pyrrolidinyl]-2-butynyl]-3-hydroxy-2-pyrrolidinone] showed a Ki [1] of over 100 µM and a Ki [2] of 4.2 µM.

`CC(C)(C)C(=O)O[C@@H]1CCN(CC#CCN2CCCC2)C1=O` [(R)-2,2-Dimethylpropanoic acid 2-oxo-1-[4-(1-pyrrolidinyl)-2-butynyl]-3-pyrrolidinyl ester] showed a Ki [1] of 10.2 µM and a Ki [2] of 0.5 µM.

`CCCCCCCCCC(=O)O[C@H]1CC(=O)N(CC#CCN2CCCC2)C1` [(S)-Decanoic acid 2-oxo-1-[4-(1-pyrrolidinyl)-2-butynyl]-4-pyrrolidinyl ester] was tested, and the Ki [1] was 0.035 µM and the Ki [2] was 0.33 µM.

Work on `CC(C)C(=O)O[C@H]1CCN(CC#CCN(C)C)C1=O` [(S)-2-Methylpropanoic acid 1-[4-(dimethylamino)-2-butynyl]-2-oxo-3-pyrrolidinyl ester] yielded a Ki [1] of 610 µM.

In the case of `CN(C)CC#CCN1CC[C@@H](OC(=O)C(C)(C)C)C1=O` [(R)-2,2-Dimethylpropanoic acid 1-[4-(dimethylamino)-2-butynyl]-2-oxo-3-pyrrolidinyl ester], the Ki [1] is reported as 404 µM.

For `CN(C)CC#CCN1CC[C@H](O[Si](C)(C)C(C)(C)C)C1=O` [(S)-1-[4-(Dimethylamino)-2-butynyl]-3-[[(1,1-dimethylethyl)-dimethylsilyl]oxy]-2-pyrrolidinone], the Ki [1] was 14.3 µM and the Ki [2] was 18.2 µM.

`C[C@H]1CCN(CC#CCN(C)C)C1=O` [(S)-1-[4-(Dimethylamino)-2-butynyl]-3-methyl-2-pyrrolidinone] gave a Ki [1] of 35.5 µM and a Ki [2] of 0.68 µM.

`O=C(NCC#CCN1CCCC1)C(F)(F)F` [2,2,2-Trifluoro-N-[4-(1-pyrrolidinyl)-2-butynyl]acetamide monohydrochloride] was tested, and the Ki [1] was 18.5 µM and the Ki [2] was 8.88 µM.

`CC(=O)O[C@H]1CCN(CC#CCN(C)CCCCO)C1=O` [(S)-3-(Acetyloxy)-1-[4-[(4-hydroxybutyl)methylamino]-2-butynyl]-2-pyrrolidinone] was tested, and the Ki [1] was over 100 µM and the Ki [2] was 8.21 µM.

`CS[C@H]1CCN(CC#CC[N+](C)(C)C)C1=O` [(S)-N,N, N-Trimethyl-4-[3-(methylthio)-2-oxo1-pyrrolidinyl]-2-butyn-1-aminium iodide] showed a Ki [1] of 1.8 µM and a Ki [2] of 0.31 µM.

`CCCCCCCCOC(=O)O[C@@H]1CCN(CC#CCN(C)C)C1=O` [(R)-Carbonic acid 1-[4-(dimethylamino)-2-butynyl]-2-oxo-3-pyrrolidinyl octyl ester] showed a Ki [1] of 1.5 µM and a Ki [2] of 1.04 µM.

Compound `CCCCCCCCOC(=O)O[C@H]1CCN(CC#CCN(C)C)C1=O` [(S)-Carbonic acid 1-[4-(dimethylamino)-2-butynyl]-2-oxo-3-pyrrolidinyl octyl ester] has a Ki [1] of 10 µM and a Ki [2] of 0.306 µM.

For `O=C1[C@@H](O)CCN1CC#CCn1ccnc1` [(S)-3-Hydroxy-1-[4(1H-imidazol-1-yl)-2-butynyl]-2-pyrrolidinone], the Ki [1] was over 100 µM and the Ki [2] was 0.12 µM.

`CS[C@H]1CCN(CC#CCN(C)C)C1=O` [(S)-1-[4-(Dimethylamino)-2-butynyl]-3-(methylthio)-2-pyrrolidinone] gave a Ki [1] of over 100 µM and a Ki [2] of 6.4 µM.

Work on `COC(=O)O[C@@H]1CCN(CC#CCN(C)C)C1=O` [(R)-Carbonic acid 1-[4-(dimethylamino)-2-butynyl]-2-oxo-3-pyrrolidinyl methyl ester monohydrochloride] yielded a Ki [1] of 52 µM and a Ki [2] of 3.07 µM.

`CC(C)(C)[Si](C)(C)O[C@H]1CCN(CC#CCN2CCCC2)C1=O` [(S)-3-[[(1,1-Dimethylethyl)-dimethylsily]0xy]-1-[4-(1-pyrrolidinyl)-2-butynyl]-2-pyrrolidinone] gave a Ki [1] of 2.7 µM and a Ki [2] of 3 µM.

Work on `CCN(CC)CC#CCN1CC[C@H](O[Si](C)(C)C(C)(C)C)C1=O` [(S)-1-[4-(diethylamino)-2-butynyl]-3-[[(1,1-dimethylethyl)dimethylsily]oxy]-2-pyrrolidinone] yielded a Ki [1] of 7.6 µM and a Ki [2] of 15.4 µM.

Compound `CC(C)(C)[Si](C)(C)O[C@H]1CCN(CC#CCN2CCC2)C1=O` [(S)-1-[4-(1-Azetidinyl)-2-butynyl]-3-[[(1,1-dimethylethyl)-dimethylsilyl]oxy]-2-pyrrolidinone] has a Ki [1] of 5.8 µM and a Ki [2] of 5.6 µM.

`[N-]=[N+]=N[C@H]1CCN(CC#CCN2CCCC2)C1=O` [(S)-3-Azido-1-[4-(1-pyrrolidinyl)-2-butynyl]-2-pyrrolidinone] was tested, and the Ki [1] was 3.14 µM and the Ki [2] was 0.16 µM.

For `CC(=O)O[C@@H]1CCN(CC#CCN(C)CCO)C1=O` [(R)-3-(Acetyloxy)-1-[4-[2-(hydroxyethyl)methylamino]-2-butynyl]-2-pyrrolidinone], the Ki [1] was over 100 µM and the Ki [2] was 28.3 µM.

In the case of `CC(C)(C)C(=O)O[C@H]1CCN(CC#CC[N+](C)(C)C)C1=O` [(S)-4-[3-(2,2-Dimethyl-1-oxopropoxy)-2-oxo-1-pyrrolidinyl]-N,N, N-trimethyl-2-butyn-1-aminium iodide], the Ki [1] is reported as 478 µM and the Ki [2] is reported as 7.8 µM.

Compound `COC(=O)O[C@@H]1CCN(CC#CCN2CCCC2)C1=O` [(R)-Carbonic acid methyl 2-oxo-1-[4-(1-pyrrolidinyl)-2-butynyl]-3-pyrrolidinyl ester] has a Ki [1] of 27.3 µM and a Ki [2] of 0.35 µM.

Work on `NCC#CCN1CCCC1` [4-(1-Pyrrolidinyl)-2-butyn-1-amine dihydrochloride] yielded a Ki [1] of over 100 µM and a Ki [2] of 13 µM.

With `COC(=O)O[C@H]1CCN(CC#CCN2CCCC2)C1=O` [(S)-Carbonic acid methyl 2-oxo-1-[4-(1-pyrrolidinyl)-2-butynyl]-3-pyrrolidinyl ester] the Ki [1] was 5.4 µM and 10.4 µM.
